Experimental data as given in article PMC12718135, “Non-catalytic UBL2 domain directs deubiquitinase USP11 toward K48-linked polyubiquitin chains” (The Journal of Biological Chemistry, 2025).

Assays:
[1] = target: T1, USP11-D1D2 (Homo sapiens, UniProt P51784); assay: SDS-gel deubiquitination of K63-polyubiquitinated Rsp5 (fluorescein-Ub); format: biochemical; settings: 1 μM enzyme, 25 mM Tris pH 7.5, 200 mM NaCl, 3 mM βME
T1 construct: catalytic core only: D1 and D2 segments joined by five residues (ASTSK), UBL2-IDR insert, DUSP and UBL1 removed; E. coli BL21 RIL, N-terminal His6 tag cut with TEV

[2] = target: T2, USP11ΔDUSP (Homo sapiens, UniProt P51784); assay: SDS-gel deubiquitination of K48- and K63-polyubiquitinated Rsp5; format: biochemical; settings: K48- and K63-linked poly-ubiquitinated Rsp5 substrates
T2 construct: gene USP11; N-terminal DUSP domain removed; keeps UBL1, D1, UBL2-IDR, D2
T2 sequence (P51784 185-963 limits assumed, stated change not applied): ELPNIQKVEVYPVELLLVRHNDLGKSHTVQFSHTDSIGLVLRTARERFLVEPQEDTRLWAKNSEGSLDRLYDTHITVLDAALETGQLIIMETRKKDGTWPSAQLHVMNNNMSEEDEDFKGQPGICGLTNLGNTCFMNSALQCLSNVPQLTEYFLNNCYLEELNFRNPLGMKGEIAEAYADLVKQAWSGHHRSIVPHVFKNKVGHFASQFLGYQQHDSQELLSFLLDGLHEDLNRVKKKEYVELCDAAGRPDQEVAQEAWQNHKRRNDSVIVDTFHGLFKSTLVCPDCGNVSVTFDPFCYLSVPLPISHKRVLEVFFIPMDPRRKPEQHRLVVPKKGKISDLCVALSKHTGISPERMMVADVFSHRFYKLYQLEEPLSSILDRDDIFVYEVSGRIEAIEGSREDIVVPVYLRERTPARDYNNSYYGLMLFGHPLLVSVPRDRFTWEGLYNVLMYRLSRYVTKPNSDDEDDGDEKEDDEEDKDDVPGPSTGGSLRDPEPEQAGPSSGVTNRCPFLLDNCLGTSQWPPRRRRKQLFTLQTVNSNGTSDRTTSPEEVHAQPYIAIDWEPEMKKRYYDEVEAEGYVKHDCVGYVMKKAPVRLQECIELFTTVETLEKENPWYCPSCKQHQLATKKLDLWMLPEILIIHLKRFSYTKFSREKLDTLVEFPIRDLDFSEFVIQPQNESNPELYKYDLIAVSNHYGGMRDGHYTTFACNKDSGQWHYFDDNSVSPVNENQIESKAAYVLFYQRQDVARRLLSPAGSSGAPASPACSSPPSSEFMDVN

T1 sequence (P51784 286-490 limits assumed): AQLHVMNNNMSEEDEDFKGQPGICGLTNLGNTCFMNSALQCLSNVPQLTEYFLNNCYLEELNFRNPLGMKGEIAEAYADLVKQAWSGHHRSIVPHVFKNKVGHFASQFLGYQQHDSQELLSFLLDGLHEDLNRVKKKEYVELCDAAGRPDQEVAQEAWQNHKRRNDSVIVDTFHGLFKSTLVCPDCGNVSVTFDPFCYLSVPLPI
T1 sequence (P51784 735-930 limits assumed): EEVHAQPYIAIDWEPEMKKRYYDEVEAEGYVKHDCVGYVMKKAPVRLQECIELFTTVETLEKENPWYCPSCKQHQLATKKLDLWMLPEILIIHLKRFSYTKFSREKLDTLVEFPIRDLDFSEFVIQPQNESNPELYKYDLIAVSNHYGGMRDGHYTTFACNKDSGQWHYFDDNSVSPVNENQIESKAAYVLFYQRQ

Row | Structure (SMILES) | IC50 [1] [µM] | SDS-gel deubiquitination of K48- and K63-polyubiquitinated Rsp5 [2] | IC50 ([1]; value printed collectively for the analogs) [µM]
1 | Oc1ccc(C2CNCCc3c2cc(O)c(O)c3Cl)cc1 (centres unmarked) [Fenoldopam] | ~30 | Fenoldopam and Olanzapine effectively disrupted the ability of USP11ΔDUSP to process both K48 and K63-linked | 
2 | Oc1cc2c(cc1O)C(c1ccccc1)CNCC2 (centres unmarked) [SRF-02] | ~30 | SRF-01, SRF-02, SRF-03, and SRO-01 also inhibited the activity of USP11ΔDUSP | 
3 | Cc1cc2c(s1)Nc1ccccc1N=C2N1CC[N+](C)([O-])CC1 [SRO-01] | ~30 | SRF-01, SRF-02, SRF-03, and SRO-01 also inhibited the activity of USP11ΔDUSP | 
4 | CN1CCc2cc(Cl)c(O)cc2[C@@H](c2ccccc2)C1 [SRF-03] | ~30 | SRF-01, SRF-02, SRF-03, and SRO-01 also inhibited the activity of USP11ΔDUSP | 
5 | Oc1ccc(C2CNCCc3c2cc(O)c(O)c3Cl)cc1 (centres unmarked) [SRF-01] |  | SRF-01, SRF-02, SRF-03, and SRO-01 also inhibited the activity of USP11ΔDUSP | ~30
6 | Cc1cc2c(s1)Nc1ccccc1N=C2N1CCN(C)CC1 [Olanzapine] |  | Fenoldopam and Olanzapine effectively disrupted the ability of USP11ΔDUSP to process both K48 and K63-linked | 
